Measured values from patent publication EP2818471A1, “Nitrogen bicyclic compounds as inhibitors for Scyl1 and Grk5” (Max-Planck-Gesellschaft zur Förderung der Wissenschaften …, priority 2013, dated 2014).

What follows are molecules tested on beta-TC6 cells (assay: Insulin HTRF assay, relative activity Ar normalized to sunitinib). Settings: Mus musculus, normalized to positive control sunitinib (5 µM = 100%), Table 10.
Assay type: cell-based
Description: For further screening of compounds derived from compounds described above for their ability to regulate insulin release an insulin HTRF® (Homogeneous Time-Resolved Fluorescence; Cisbio International, France) was used. This assay is based on two antibodies against insulin binding to different epitopes of insulin. One of these antibodies is coupled to Europium (Ab-Eu-Cryptate) and the other one to the fluorophore XL665 (Ab-XL665). Is insulin secreted into the supernatant of cell culture both antibodies can bind to insulin and come therefore into close proximity which allows upon excitation that energy transfer between (FRET) the long-life fluorescent donor Europium (cryptate) and the acceptors XL665. FRET increases proportionally with insulin concentration.
The automated assay protocol is as follows: • On day 1 15k beta-TC6 cells per well were seeded for 24 or 48 h in 50 µl complete medium. On day 2 or respective on day 3 the medium is removed and cells are washed with 60 µl 1xPBS and 20 µl induction buffer is added using BioTek washer. Subsequently, 10 µl Sunitininb (5 µM f.c.) or the test compound in induction buffer; 0.5% f.c. DMSO (CyBi-well) is transferred to the cells. The cells are then incubated at 37°C for 2, 3, 4h.
The HTRF assay is carried out using Greiner 384-well 784075 assay plates. First 10 µl supernatant is transferred from the cell plates in HTRF plates (CyBi-well). 10 µl of 0, 1, 2, and 4 ng/ml Insulin standard controls in assay medium is used as a control. To each well 10 µl of combined 1:25 Ab-XL665 (Acc) and 1:20 Ab-Eu-Cryptate (WellMate) are added and incubated for 120 min at RT in the dark. Finally HTRF is measured on ViewLux ultra high throughput microplate imager (PerkinElmer).
The evaluation software DataFactoty derives relative activities Ar according to the following equation: Ar = (V-R(0%control))/(R(100%control) -R(0%control)) × 100 [formula] […]
The activity of the compounds was classified according to their Ar (relative activity) into the following ranges: Ar ≥ 100% + + + +; 50% ≤ Ar < 100% + + +; 20% ≤ Ar < 50% + +; 10% < Ar < 20% + [formula] Table 10. Ar (relative activity) values of inventive compounds

Structure (SMILES) | Emax
CNc1ccc2ncc(/C=C\CCCO)n2n1 [compound 59, (Z)-5-[6-(methylamino)imidazo[1,2-b]pyridazin-3-yl]pent-4-en-1-ol] | 10 to 20%
c1csc(-c2ccc3nnc(-c4ccoc4)n3c2)c1 [compound 221, 3-(3-furyl)-6-(2-thienyl)-[1,2,4]triazolo[4,3-a]pyridine] | 50 to 100%
COc1ccc(-c2ccc3ncc(-c4cccc(Cl)c4)n3n2)c(C)c1 [compound 125, 3-(3-chlorophenyl)-6-(4-methoxy-2-methyl-phenyl)imidazo[1,2-b]pyridazine] | 10 to 20%
CN1CCN(C(=O)c2cccc(-c3cnc4cnc(-c5ccc6c(ccn6C)c5)cn34)c2)CC1 [compound 358, [3-[6-(1-methylindol-5-yl)imidazo[1,2-a]pyrazin-3-yl]phenyl]-(4-methylpiperazin-1-yl)methanone] | 20 to 50%
COc1cc(-c2nnc3ccc(-c4ccc(N5CCN(C)CC5)cc4)cn23)ccc1O [compound 215, 2-methoxy-4-[6-[4-(4-methylpiperazin-1-yl)phenyl]-[1,2,4]triazolo[4,3-a]pyridin-3-yl]phenol] | 20 to 50%
Cc1cccc(-c2cnc3cccnn23)c1 [compound 84, 3-(m-tolyl)imidazo[1,2-b]pyridazine] | 10 to 20%
COc1cccc(-c2ccc3ncc(-c4cccc(Cl)c4)n3n2)c1 [compound 126, 3-(3-chlorophenyl)-6-(3-methoxyphenyl)imidazo[1,2-b]pyridazine] | 10 to 20%
Cc1cc(-c2cn3c(-c4ccc5ncccc5c4)cnc3cn2)cc(C)c1O [compound 442, 2,6-dimethyl-4-[3-(6-quinolyl)imidazo[1,2-a]pyrazin-6-yl]phenol] | 20 to 50%
O=C(NC1CCCC1)c1ccc(-c2cn3c(-c4ccc(CO)cc4)cnc3cn2)cc1 [compound 375, N-cyclopentyl-4-[3-[4-(hydroxymethyl)phenyl]imidazo[1,2-a]pyrazin-6-yl]benzamide] | 20 to 50%
FC(F)(F)Oc1cccc(-c2ccc3nnc(-c4ccncc4)n3c2)c1 [compound 178, 3-(4-pyridyl)-6-[3-(trifluoromethoxy)phenyl]-[1,2,4]triazolo[4,3-a]pyridine] | 20 to 50%
Clc1cccc(-c2nnc3ccc(-c4cncnc4)cn23)c1 [compound 203, 3-(3-chlorophenyl)-6-pyrimidin-5-yl-[1,2,4]triazolo[4,3-a]pyridine] | 20 to 50%
NC(=O)c1ccc(-c2ccc3ncc(-c4ccccc4)n3n2)cc1 [compound 100, 4-(3-phenylimidazo[1,2-b]pyridazin-6-yl)benzamide] | 20 to 50%
N#Cc1cccc(-c2nnc3ccc(-c4ccccn4)cn23)c1 [compound 222, 3-[6-(2-pyridyl)-[1,2,4]triazolo[4,3-a]pyridin-3-yl]benzonitrile] | 20 to 50%
O=C(NC1CC1)c1ccc(-c2cnc3cccnn23)cc1 [compound 89, N-cyclopropyl-4-imidazo[1,2-b]pyridazin-3-yl-benzamide] | 10 to 20%
OCc1ccc(-c2cnc3ccc(-c4cncnc4)nn23)cc1 [compound 130, [4-(6-pyrimidin-5-ylimidazo[1,2-b]pyridazin-3-yl)phenyl]methanol] | 10 to 20%
CN(C)CCCOc1ccc(-c2nnc3ccc(C#Cc4ccc(C(=O)N(C)C)cc4)cn23)cc1 [compound 238, 4-[2-[3-[4-[3-(dimethylamino)propoxy]phenyl]-[1,2,4]triazolo[4,3-a]pyridin-6-yl]ethynyl]-N,N-dimethyl-benzamide] | 20 to 50%
O=C(O)CCc1ccc(-c2cnc3cnc(-c4ccccc4CO)cn23)cc1 [compound 333, 3-[4-[6-[2-(hydroxymethyl)phenyl]imidazo[1,2-a]pyrazin-3-yl]phenyl]propanoic acid] | 20 to 50%
COc1cc(-c2ccc3nnc(-c4ccoc4)n3c2)cc(OC)c1OC [compound 219, 3-(3-furyl)-6-(3,4,5-trimethoxyphenyl)-[1,2,4]triazolo[4,3-a]pyridine] | 50 to 100%
OCc1ccc(-c2cnc3cnc(-c4ccc(Cl)cc4Cl)cn23)cc1 [compound 374, [4-[6-(2,4-dichlorophenyl)imidazo[1,2-a]pyrazin-3-yl]phenyl]methanol] | 20 to 50%
